Measurements from patent US20250324971A1, “HERBICIDAL DERIVATIVES” (SYNGENTA CROP PROTECTION AG, priority 2022, published 2025).

Assays:
Type in all cases: in vivo
[1] = system: Amaranthus retoflexus (AMARE); assay: Pre-Emergence Test (herbicidal, glasshouse pots); details: evaluated after 13 days, five-point scale
[2] = system: Amaranthus palmeri (AMAPA); assay: Pre-Emergence Test (herbicidal, glasshouse pots); details: evaluated after 13 days, five-point scale
Setaria faberi (SETFA) [3] = assay: Pre-Emergence Test (herbicidal, glasshouse pots); details: evaluated after 13 days, five-point scale
Zea mays (ZEAMX) [4] = assay: Pre-Emergence Test (herbicidal, glasshouse pots); details: evaluated after 13 days, five-point scale
Zea mays (ZEAMX) [5] = assay: Post-Emergence Test (herbicidal, glasshouse pots); details: evaluated after 13 days
Protocol: (§1) Seeds of a variety of test species are sown in standard soil in pots (Setaria faberi (SETFA), Ipomoea hederacea (IPOHE), Echinochloa crus-galli (ECHCG), (Amaranthus retoflexus (AMARE), Zea mays (ZEAMX), and Amaranthus palmeri (AMAPA)). After 8 days cultivation under controlled conditions in a glasshouse (at 24° C./16° C., day/night; 14 hours light; 65% humidity), the plants arm sprayed with an aqueous spray solution derived from the formulation of the technical active ingredient in acetone/water (50:50) solution containing 0.5% Tween 20 (polyoxyethylene sorbitan monolaurate, CAS RN 9005-84-5). Rate of application is shown in g/ha in the tables below. The test plants are then grown in a glasshouse under controlled conditions in a glasshouse (at 24° C./16° C., day/night; 14 hours light; 65% humidity) and watered twice daily. After 13 days the test is evaluated for the percentage damage caused to the plant. The biological activities are shown in the following table on a five-point scale (5=81-100%; 4=61-80%; 3=41-60%; 2=21-40%; 1=0-20%; -=not tested).

[6] = system: Amaranthus retoflexus (AMARE); assay: Post-Emergence Test (herbicidal, glasshouse pots); details: evaluated after 13 days
Protocol: as §1

[7] = system: Echinochloa crus-galli (ECHCG); assay: Post-Emergence Test (herbicidal, glasshouse pots); details: evaluated after 13 days
Protocol: as §1

[8] = system: Ipomoea hederacea (IPOHE); assay: Post-Emergence Test (herbicidal, glasshouse pots); details: evaluated after 13 days
Protocol: as §1

Setaria faberi (SETFA) [9] = assay: Post-Emergence Test (herbicidal, glasshouse pots); details: evaluated after 13 days
Protocol: as §1

[10] = system: Amaranthus palmeri (AMAPA); assay: Post-Emergence Test (herbicidal, glasshouse pots); details: evaluated after 13 days
Protocol: as §1

[11] = system: Echinochloa crus-galli (ECHCG); assay: Pre-Emergence Test (herbicidal, glasshouse pots); details: evaluated after 13 days, five-point scale
[12] = system: Ipomoea hederacea (IPOHE); assay: Pre-Emergence Test (herbicidal, glasshouse pots); details: evaluated after 13 days, five-point scale

Row | Structure (SMILES) | percentage damage caused to the plant, AMARE ([1]; rate 250 g/ha) | percentage damage caused to the plant, AMAPA ([2]; rate 250 g/ha) | percentage damage caused to the plant, SETFA (Setaria faberi (SETFA) [3]; rate 250 g/ha) | percentage damage caused to the plant, ZEAMX (Zea mays (ZEAMX) [4]; rate 250 g/ha) | Post-Emergence Test ZEAMX percentage damage (five-point scale) (Zea mays (ZEAMX) [5]; rate 250 g/ha) | Post-Emergence Test AMARE percentage damage (five-point scale) ([6]; rate 250 g/ha) | Post-Emergence Test ECHCG percentage damage (five-point scale) ([7]; rate 250 g/ha) | Post-Emergence Test IPHOE percentage damage (five-point scale) ([8]; rate 250 g/ha) | Post-Emergence Test SETFA percentage damage (five-point scale) (Setaria faberi (SETFA) [9]; rate 250 g/ha) | Post-Emergence Test AMAPA percentage damage (five-point scale) ([10]; rate 250 g/ha) | percentage damage caused to the plant, ECHCG ([11]; rate 250 g/ha) | percentage damage caused to the plant, IPHOE ([12]; rate 250 g/ha) | also measured
1 | CCn1c(Oc2cc(C)on2)cc(=O)c(C(=O)O)c1-c1ccc(Cl)c(Cl)c1 [Compound 46, 2-(3,4-dichlorophenyl)-1-ethyl-6-(5-methylisoxazol-3-yl)oxy-4-oxo-pyridine-3-carboxylic acid] | 2 (2=21-40%) | 1 (1=0-20%) | 1 (1=0-20%) | 0 | 0 | 2 (2=21-40%) | 1 (1=0-20%) | 3 (3=41-60%) | 0 | 0 | 1 (1=0-20%) | 2 (2=21-40%) | 
2 | CCn1ccc(Oc2cc(=O)c(C(=O)O)c(-c3ccc(Cl)c(Cl)c3)n2CC)n1 [Compound 57, 2-(3,4-dichlorophenyl)-1-ethyl-6-(1-ethylpyrazol-3-yl)oxy-4-oxo-pyridine-3-carboxylic acid] | 4 (4=61-80%) | 3 (3=41-60%) | 5 (5=81-100%) | 5 (5=81-100%) | 4 (4=61-80%) | 4 (4=61-80%) | 4 (4=61-80%) | 4 (4=61-80%) | 4 (4=61-80%) | 4 (4=61-80%) | 4 (4=61-80%) | 4 (4=61-80%) | 
3 | CCn1c(Oc2ccccc2F)cc(=O)c(C(=O)O)c1-c1ccc(Cl)c(Cl)c1 [Compound 3, 2-(3,4-dichlorophenyl)-1-ethyl-6-(2-fluorophenoxy)-4-oxo-pyridine-3-carboxylic acid] |  |  |  |  |  |  |  |  |  |  |  |  | percentage damage caused to the plant, AMARE ([1]; rate 1000 g/ha): 2 (2=21-40%); percentage damage caused to the plant, AMAPA ([2]; rate 1000 g/ha): 1 (1=0-20%); percentage damage caused to the plant, SETFA (Setaria faberi (SETFA) [3]; rate 1000 g/ha): 5 (5=81-100%); percentage damage caused to the plant, ZEAMX (Zea mays (ZEAMX) [4]; rate 1000 g/ha): 2 (2=21-40%); Post-Emergence Test ZEAMX percentage damage (five-point scale) (Zea mays (ZEAMX) [5]; rate 1000 g/ha): 2 (2=21-40%); Post-Emergence Test AMARE percentage damage (five-point scale) ([6]; rate 1000 g/ha): 3 (3=41-60%); Post-Emergence Test ECHCG percentage damage (five-point scale) ([7]; rate 1000 g/ha): 4 (4=61-80%); Post-Emergence Test IPHOE percentage damage (five-point scale) ([8]; rate 1000 g/ha): 3 (3=41-60%); Post-Emergence Test SETFA percentage damage (five-point scale) (Setaria faberi (SETFA) [9]; rate 1000 g/ha): 4 (4=61-80%); Post-Emergence Test AMAPA percentage damage (five-point scale) ([10]; rate 1000 g/ha): 2 (2=21-40%); percentage damage caused to the plant, ECHCG ([11]; rate 1000 g/ha): 4 (4=61-80%); percentage damage caused to the plant, IPHOE ([12]; rate 1000 g/ha): 4 (4=61-80%)
4 | C#CC(C)Oc1cc(=O)c(C(=O)O)c(-c2ccc(Cl)c(Cl)c2)n1CC (stereo not drawn) [Compound 49, 2-(3,4-dichlorophenyl)-1-ethyl-6-(1-methylprop-2-ynoxy)-4-oxo-pyridine-3-carboxylic acid] | 1 (1=0-20%) | 0 | 1 (1=0-20%) | 0 | 1 (1=0-20%) | 1 (1=0-20%) | 0 | 1 (1=0-20%) | 0 | 4 (4=61-80%) | 1 (1=0-20%) | 1 (1=0-20%) | 
